Laboratory results as given in the supplement of paper PMC10307832.

What was measured:
Experiment in all cases: relative viability (nuclei count vs DMSO), 5 days (fraction); higher = more cells survive
Tosedostat + OSI-027 = compound: CC(C)C[C@@H](C(=O)N[C@H](C(=O)OC1CCCC1)c1ccccc1)[C@H](O)C(=O)NO [Tosedostat] + COc1cccc2cc(-c3nc([C@H]4CC[C@H](C(=O)O)CC4)n4ncnc(N)c34)[nH]c12 [OSI-027] (partner 0.5 µM)
In short: (§1)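 Relative viability divides the nuclei count in treated wells by that in vehicle wells. Lung cancer cell lines were seeded in 1536-well plates, dosed by pin tool the next day, and fixed and stained after 5 days in one step with final 0.05% Triton X-100, 1% formaldehyde and 1 ug/ml Hoechst. Dosing was a single drug or a fixed anchor-drug dose plus five library-drug doses (not always all listed) in √10 steps, and values are medians of duplicate plates imaged at 4×.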

[1] = compound: CC1=NN=C(O1)C2=NN=C(C=C2)N3CCC(CC3)OC4=C(C=CC(=C4)F)Cl + CC1(C)CCC(c2ccc(Cl)cc2)=C(CN2CCN(c3ccc(C(=O)NS(=O)(=O)c4ccc(N[C@H](CCN5CCOCC5)CSc5ccccc5)c(S(=O)(=O)C(F)(F)F)c4)cc3)CC2)C1 [Navitoclax] (partner 0.5 µM)
In short: as §1

[2] = compound: CC1=NN=C(O1)C2=NN=C(C=C2)N3CCC(CC3)OC4=C(C=CC(=C4)F)Cl + COc1cccc2cc(-c3nc([C@H]4CC[C@H](C(=O)O)CC4)n4ncnc(N)c34)[nH]c12 [OSI-027] (partner 0.5 µM)
In short: as §1

[3] = compound: CC1=NN=C(O1)C2=NN=C(C=C2)N3CCC(CC3)OC4=C(C=CC(=C4)F)Cl + CS(=O)(=O)N1CCN(Cc2cc3nc(-c4cccc5[nH]ncc45)nc(N4CCOCC4)c3s2)CC1 [Pictilisib] (partner 1 µM)
In short: as §1

UMC-11
relative viability (Tosedostat + OSI-027; first compound 0.02 µM): 0.473
relative viability (Tosedostat + OSI-027; first compound 0.06325 µM): 0.464
relative viability (Tosedostat + OSI-027; first compound 0.2 µM): 0.397
relative viability (Tosedostat + OSI-027; first compound 0.6325 µM): 0.449
relative viability (Tosedostat + OSI-027; first compound 2 µM): 0.473
relative viability ([1]; first compound 0.253 µM): 0.287
relative viability ([1]; first compound 0.8 µM): 0.344
relative viability ([1]; first compound 2.53 µM): 0.315
relative viability ([1]; first compound 8 µM): 0.317
relative viability ([2]; first compound 0.253 µM): 0.446
relative viability ([2]; first compound 0.8 µM): 0.482
relative viability ([2]; first compound 2.53 µM): 0.529
relative viability ([2]; first compound 8 µM): 0.565
relative viability ([3]; first compound 0.253 µM): 0.723
relative viability ([3]; first compound 0.8 µM): 0.65
relative viability ([3]; first compound 2.53 µM): 0.797
relative viability ([3]; first compound 8 µM): 0.684
